Columns and labels:
[1] = molecular target: CLK2 kinase (Homo sapiens, UniProt P49760); assay: CLK2 kinase activity assay (Z-lyte FRET); assay type: biochemical; conditions: Z-lyte Ser/Thr 6 peptide, 60 μM ATP, 1 h at room temperature;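 note: FRET read-out as coumarin to fluorescein emission ratio, unphosphorylated peptide as 0% and phosphorylated peptide as 100% controls, duplicate reactions, non-linear regression fit of dose-response curves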
[2] = molecular target: CLK3 kinase (Homo sapiens, UniProt P49761); assay: CLK3 kinase activity assay (Z-lyte FRET); assay type: biochemical; conditions: Z-lyte Ser/Thr 18 peptide, 156 μM ATP, 1 h at room temperature;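 note: kinase activity read as coumarin/fluorescein emission ratio by FRET, unphosphorylated peptide as 0% and phosphorylated peptide as 100% control, values from non-linear regression of dose-response curves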
Protocol: This is a non-radioactive assay using fluorescence resonance energy transfer (FRET) between coumarin and fluorescein to detect kinase activity which is represented as a ratio of coumarin emission/fluorescein emission.
The mixture was allowed to incubate with the representative compounds for one hour at room temperature. All reactions were performed in duplicate. Unphosphorylated (“0% Control”) and phosphorylated (“100% control”) forms of Ser/Thr 18 served as control reactions. Additionally, an 11-point dose-response curve of Staurosporine (1 μM top) was run to serve as a positive compound control.
After incubation, Development Reagent A was diluted in Development Buffer then added to the reaction and allowed to further incubate for one hour at room temperature.
Dose-response curves were generated and inhibitory concentration (IC50) values were calculated using non-linear regression curve fit in the Dotmatics' Studies Software (Bishops Stortford, UK).

[3] = tested on: primary human mesenchymal stem cells (hMSCs); assay: Chondrogenesis screening using primary human mesenchymal stem cells; assay type: cell-based; conditions: Homo sapiens, Mesenchymal stem cells, hMSC chondrogenesis; for Emax: maximum activity relative to TGF-β3 (10 ng/mL) positive control, read-out: Max. Activity as % TGF-β3 activity; for EC50: concentration required to induce 50% levels of chondrogenesis with TGF-β3 as positive control, read-out: Conc (nM) of 50% TGF-β3 activity
Method in brief: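 Primary hMSCs at passage 3–6 were treated across compound concentrations, with TGF-β3 as positive control. Chondrogenic nodule area per well was normalized to 3 DMSO wells on the same plate (fold over DMSO, 2–3 replicates). EC50, maximum activity and the dose reaching it were derived.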

[4] = tested on: Wnt pathway activity (SW480 colon carcinoma cells stably expressing the Sp5-Luc reporter); assay: Wnt pathway activity screening assay (Sp5-Luc reporter gene assay); conditions: Homo sapiens, SW480, Table 4; SW480 cells stably expressing Sp5-Luc reporter, 10-point dose-response from 10 μM, 36 to 48 hours

CLK2 kinase, sequence (P49760 whole entry): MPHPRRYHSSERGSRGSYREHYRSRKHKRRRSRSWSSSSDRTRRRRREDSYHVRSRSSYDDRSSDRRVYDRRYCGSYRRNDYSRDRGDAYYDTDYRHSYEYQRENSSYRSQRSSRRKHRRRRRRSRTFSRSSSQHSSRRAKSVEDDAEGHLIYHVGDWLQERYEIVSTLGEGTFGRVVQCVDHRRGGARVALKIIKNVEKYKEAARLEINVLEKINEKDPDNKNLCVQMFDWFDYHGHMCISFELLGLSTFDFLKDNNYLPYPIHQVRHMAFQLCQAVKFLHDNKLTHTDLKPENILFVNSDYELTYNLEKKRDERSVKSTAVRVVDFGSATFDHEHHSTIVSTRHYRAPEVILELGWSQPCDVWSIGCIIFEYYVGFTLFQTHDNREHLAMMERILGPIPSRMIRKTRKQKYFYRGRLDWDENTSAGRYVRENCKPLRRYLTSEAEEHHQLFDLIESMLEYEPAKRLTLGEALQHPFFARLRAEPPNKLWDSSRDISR
CLK3 kinase, sequence (P49761 whole entry): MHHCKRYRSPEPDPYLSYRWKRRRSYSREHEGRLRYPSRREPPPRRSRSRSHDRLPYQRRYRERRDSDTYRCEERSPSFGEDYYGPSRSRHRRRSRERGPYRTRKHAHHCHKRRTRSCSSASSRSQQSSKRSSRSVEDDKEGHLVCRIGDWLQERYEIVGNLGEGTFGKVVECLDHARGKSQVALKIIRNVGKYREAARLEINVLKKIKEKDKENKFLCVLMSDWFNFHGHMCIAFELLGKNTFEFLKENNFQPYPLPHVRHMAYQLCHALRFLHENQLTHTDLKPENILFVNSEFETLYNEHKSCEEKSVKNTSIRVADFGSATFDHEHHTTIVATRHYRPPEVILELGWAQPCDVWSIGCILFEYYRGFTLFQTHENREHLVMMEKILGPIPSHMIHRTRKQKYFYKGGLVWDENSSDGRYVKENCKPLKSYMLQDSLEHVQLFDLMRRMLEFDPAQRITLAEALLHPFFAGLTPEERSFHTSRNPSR

| Structure (SMILES) | EC50 [1] | EC50 [2] | EC50 [4] | EC50 [3] | Emax [3] |
| --- | --- | --- | --- | --- | --- |
| Nc1cncc(-c2cnc3[nH]nc(-c4cc5c(-c6ccncc6)cncc5[nH]4)c3c2)c1 [compound 379] | 4 nM | 69 nM | > 10000 nM |  | 31.5% |
| CC(C)C(=O)Nc1cncc(-c2cc3c(-c4cc5c(-c6ccncc6)nccc5[nH]4)n[nH]c3cn2)c1 [compound 385] | 12 nM | 389 nM | > 10000 nM |  | 32.1% |
| CC(C)CC(=O)Nc1cncc(-c2ccc3[nH]nc(-c4cc5c(-c6ccncc6)cncc5[nH]4)c3c2)c1 [compound 388] | 4 nM | 29 nM | 875 nM |  | 70.2% |
| CC(C)CC(=O)Nc1cncc(-c2cnc3[nH]nc(-c4cc5c(-c6ccncc6)cccc5[nH]4)c3c2)c1 [compound 389] | 9 nM | 9910 nM | 711 nM | 30 nM | 71.4% |
| CC(C)(C)C(=O)Nc1cncc(-c2ccc3[nH]nc(-c4cc5c(-c6ccncc6)ccnc5[nH]4)c3c2)c1 [compound 390] | 11 nM | 137 nM | > 10000 nM |  | 44.4% |
| CC(C)(C)C(=O)Nc1cncc(-c2cc3c(-c4cc5c(-c6ccncc6)cncc5[nH]4)n[nH]c3cn2)c1 [compound 392] | 9 nM | 92 nM | > 10000 nM |  | 30.4% |
| O=C(Nc1cncc(-c2ccc3[nH]nc(-c4cc5c(-c6ccncc6)nccc5[nH]4)c3c2)c1)C1CCCC1 [compound 395] | 5 nM | 30 nM | > 10000 nM |  | 114% |
| CN(C)Cc1cncc(-c2ccc3[nH]nc(-c4cc5c(-c6ccncc6)cncc5[nH]4)c3c2)c1 [compound 398] | 3 nM | 56 nM | 1060 nM |  | 17.8% |
| CN(C)Cc1cncc(-c2cc3c(-c4cc5c(-c6ccncc6)cncc5[nH]4)n[nH]c3cn2)c1 [compound 399] | 4 nM | 188 nM | > 10000 nM | 30 nM | 51.7% |
| FC1(F)CCN(Cc2cncc(-c3cnc4[nH]nc(-c5cc6c(-c7ccncc7)cncc6[nH]5)c4c3)c2)C1 [compound 402] | 5 nM | 110 nM | 1510 nM |  | 36.5% |
| Cc1ncc(-c2cnc3[nH]nc(-c4cc5c(-c6ccncc6)cncc5[nH]4)c3c2)n1C [compound 406] | 3 nM | 227 nM | > 10000 nM |  | 194% |
| c1cncc(-c2ccc3[nH]nc(-c4cc5cnccc5[nH]4)c3c2)c1 [compound 410] | 1 nM | 15 nM | 40 nM |  | 342% |
| c1cncc(-c2ccc3[nH]nc(-c4cc5cccnc5[nH]4)c3n2)c1 [compound 414] | 3 nM | 1360 nM | > 10000 nM | 10 nM | 65.9% |
| Cc1ccncc1-c1ccc2[nH]nc(-c3cc4ccncc4[nH]3)c2c1 [compound 415] | 1 nM | 31 nM | 191 nM |  | 161% |
| Nc1cncc(-c2ccc3[nH]nc(-c4cc5cccnc5[nH]4)c3c2)c1 [compound 417] | 3 nM | 73 nM | 102 nM |  | 35.5% |
| CCC(=O)Nc1cncc(-c2cnc3[nH]nc(-c4cc5cnccc5[nH]4)c3c2)c1 [compound 418] | 2 nM | 41 nM | 960 nM |  | 16.9% |
| CC(C)C(=O)Nc1cncc(-c2cc3c(-c4cc5cnccc5[nH]4)n[nH]c3cn2)c1 [compound 419] | 1 nM | 16 nM | 399 nM | 30 nM | 61.2% |
| CCCCC(=O)Nc1cncc(-c2cnc3[nH]nc(-c4cc5cnccc5[nH]4)c3c2)c1 [compound 421] | 3 nM | 83 nM | 1470 nM |  | 30.8% |
| CCCCC(=O)Nc1cncc(-c2cc3c(-c4cc5cnccc5[nH]4)n[nH]c3cn2)c1 [compound 422] | 3 nM | 54 nM | 3570 nM |  | 49.9% |

The remaining molecules from weak to strong by EC50 [1], led by results:

| EC50 [1] | EC50 [2] | EC50 [4] | EC50 [3] | Structure (SMILES) | Emax [3] |
| --- | --- | --- | --- | --- | --- |
| 21 nM | 6210 nM | > 10000 nM |  | CC(C)CC(=O)Nc1cncc(-c2cc3c(-c4cc5cccnc5[nH]4)n[nH]c3cn2)c1 [compound 423] | 40.4% |
| 15 nM | 895 nM | 708 nM |  | FC1(F)CCN(Cc2cncc(-c3cnc4[nH]nc(-c5cc6c(-c7ccncc7)cccc6[nH]5)c4c3)c2)C1 [compound 401] | 29.2% |
| 12 nM | 180 nM | > 10000 nM |  | CN(C)Cc1cncc(-c2cc3c(-c4cc5c(-c6ccncc6)ccnc5[nH]4)n[nH]c3cn2)c1 [compound 400] | 33.4% |
| 11 nM | 344 nM | 324 nM |  | CCCCC(=O)Nc1cncc(-c2ccc3[nH]nc(-c4cc5cccnc5[nH]4)c3c2)c1 [compound 420] | 34.1% |
| 9 nM | 9840 nM | > 10000 nM |  | O=C(Nc1cncc(-c2cc3c(-c4cc5cccnc5[nH]4)n[nH]c3cn2)c1)C1CC1 [compound 427] | 17.7% |
| 8 nM | 201 nM | > 10000 nM |  | CCCCC(=O)Nc1cncc(-c2cnc3[nH]nc(-c4cc5c(-c6ccncc6)cncc5[nH]4)c3c2)c1 [compound 386] | 70.4% |
| 7 nM | 113 nM | 658 nM |  | Nc1cncc(-c2ccc3[nH]nc(-c4cc5c(-c6ccncc6)nccc5[nH]4)c3c2)c1 [compound 377] | 76.8% |
| 6 nM | 306 nM | > 10000 nM | 10 nM | c1cc(-c2cncc3[nH]c(-c4n[nH]c5ccc(-c6cncc(CN7CCCCC7)c6)nc45)cc23)ccn1 [compound 403] | 97.1% |
| 5 nM | 132 nM | > 10000 nM |  | CC(C)CC(=O)Nc1cncc(-c2ccc3[nH]nc(-c4cc5c(-c6ccncc6)nccc5[nH]4)c3c2)c1 [compound 387] | 95.5% |
| 5 nM | 142 nM | 432 nM | 10 nM | FC1(F)CCN(Cc2cncc(-c3ccc4[nH]nc(-c5cc6c(-c7ccccn7)cccc6[nH]5)c4n3)c2)C1 [compound 409] | 81.9% |
| 5 nM | 351 nM | 1060 nM |  | c1cncc(-c2cnc3[nH]nc(-c4cc5cccnc5[nH]4)c3c2)c1 [compound 411] | 11% |
| 5 nM | 88 nM | 1540 nM | 30 nM | O=C(Nc1cncc(-c2cc3c(-c4cc5cnccc5[nH]4)n[nH]c3cn2)c1)C1CC1 [compound 426] | 58.5% |
| 4 nM | 63 nM | > 10000 nM |  | Nc1cncc(-c2ccc3[nH]nc(-c4cc5c(-c6ccncc6)ccnc5[nH]4)c3n2)c1 [compound 382] | 26.9% |
| 4 nM | 62 nM | > 10000 nM |  | CC(C)(C)C(=O)Nc1cncc(-c2cnc3[nH]nc(-c4cc5c(-c6ccncc6)cncc5[nH]4)c3c2)c1 [compound 391] | 33.6% |
| 4 nM | 5490 nM | > 10000 nM |  | c1cncc(-c2cc3c(-c4cc5cccnc5[nH]4)n[nH]c3cn2)c1 [compound 413] | 27.6% |
| 3 nM | 46 nM | > 10000 nM |  | CCCC(=O)Nc1cncc(-c2ccc3[nH]nc(-c4cc5c(-c6ccncc6)cncc5[nH]4)c3c2)c1 [compound 383] | 124% |
| 3 nM | 19 nM | 22.4 nM |  | Nc1cncc(-c2ccc3[nH]nc(-c4cc5c(-c6ccccn6)ccnc5[nH]4)c3c2)c1 [compound 407] | 46.1% |
| 3 nM | 61 nM | 389 nM | 10 nM | Cc1ccncc1-c1cc2c(-c3cc4cnccc4[nH]3)n[nH]c2cn1 [compound 416] | 61.4% |
| 3 nM | 56 nM | 1890 nM | 10 nM | CC(C)(C)CC(=O)Nc1cncc(-c2cc3c(-c4cc5cnccc5[nH]4)n[nH]c3cn2)c1 [compound 425] | 58.8% |
| 2 nM | 50 nM | > 10000 nM | 30 nM | Nc1cncc(-c2cnc3[nH]nc(-c4cc5c(-c6ccncc6)nccc5[nH]4)c3c2)c1 [compound 378] | 53.5% |
| 2 nM | 32 nM | 1440 nM |  | O=C(CC1CCNCC1)Nc1cncc(-c2ccc3[nH]nc(-c4cc5c(-c6ccccn6)cccc5[nH]4)c3n2)c1 [compound 408] | 8.03% |
| 2 nM | 88 nM | 133 nM | 30 nM | c1cncc(-c2cc3c(-c4cc5cnccc5[nH]4)n[nH]c3cn2)c1 [compound 412] | 62% |
| 2 nM | 47 nM | 605 nM |  | CC(C)(C)CC(=O)Nc1cncc(-c2cnc3[nH]nc(-c4cc5cnccc5[nH]4)c3c2)c1 [compound 424] | 7.07% |
